Test results published in US20090082437A1, “Use of Oxaliplatin for Enhancing Radiosensitivity in Radiotherapy of Cervical Cancer” (MACKAY MEMORIAL HOSPITAL, priority 2007, published 2009).

Experiments:
HeLa (HPV 18+) cells = assay: MTT cell viability assay; assay type: cell-based, human; conditions: 24 hours' exposure, MTT after 2 days in fresh medium
Source text: (§1) An ideal radiosensitizer means it enhances radiosensitivity at non-toxic dose, but not due to the combined toxicity of drug and radiation. Thus to determine the toxic effect of different oxaliplatin concentrations on human cervical cancer cells by using 3-(4,5-dimethylthiazol-2-yl)-2, S-diphenyl tetrazolium bromide (MTT) assay. This assay is commonly used to determine cell proliferation, percent of viable cells, and cytotoxicity. MTT is a yellow dye, which can be absorbed by the living cells and be reduced to purplish blue formazan crystals by succinate tetrazolium reductase in mitochondria. Formazan formation can therefore be used to assess and determine the survival rate of cells.
(§2) In preliminary work, the human cervical cancer cell lines HeLa (HPV 18+) and SiHa (HPV 16+) were obtained from American Type Culture Collection (Manassas, Va.). […]
(§3) The human cervical cancer cell lines HeLa (HPV 18+) and SiHa (HPV 16+) were separately cultivated in media containing various doses (0˜10 μM) of oxaliplatin for 24 hours. […] For the assay, the cells were incubated with the MTT (tetrazolium compounds) for 4 h, lysed with DMSO, and the color crystals were solubilized with an ELISA reader at a wavelength of 570 nm.

SiHa (HPV 16+) cells = assay: MTT cell viability assay; assay type: cell-based, human; conditions: 24 hours' exposure, MTT after 2 days in fresh medium
Source text: as §1, §2, §3

HeLa cells [1] = assay: Colony formation assay after oxaliplatin pretreatment and irradiation (radiation survival); assay type: cell-based, human
Protocol: (§4) To evaluate whether oxaliplatin treatment influenced the radiosensitivity of cervical cancer cells, this experiment treated HeLa and SiHa cells with oxaliplatin at various concentrations for 2 h prior to radiation survival assays in the invention.
(§5) Based on the above results of cell viability assessment, 0˜10 μM oxaliplatin was used to test for radiation sensitization. HeLa and SiHa were pretreated with various doses (0, 1.25, 5, and 10 μM) of oxaliplatin for 2 h, and the oxaliplatin was washed out before radiation delivery. Irradiation was performed with 6 MeV of electron beam by a linear accelerator (Clinac® 1800, Varian Associates, Inc.) with various doses (0.5, 1, 2 and 3 Gy) at a dose rate of 2.4 Gy/min in a single fraction. Full electron equilibrium was ensured for each fraction by a parallel plate PR-60C ionization chamber (CAPINTEL, Inc., Ramsey, N.J.). Following radiation, a colony formation assay was performed. The ionizing radition of the present invention used include, but not limited to, electron beam radition, photon, electron, gamma, alpha, beta, neutron, and proton radiation. Among them, electron beam radition is preferred.
(§6) Viable tumor cells (10^3) were plated onto culture dishes (35 mm^2) and allowed to grow in McCoy's 5A medium containing 20% heat-inactivated FCS and 0.24% agarose at 37° C. in a humidified 5% CO2 incubator. After 10 to 14 days, the resultant colonies were stained with 0.4% crystal violet and the colonies containing at least 50 cells were determined. The surviving fraction was calculated as the mean colonies/(cells inoculated×plating efficiency). The control plating efficiency for HeLa and SiHa cells was 40-60%. Survival curves were fitted by a linear-quadratic model. The sensitizer enhancement ratio (SER) was calculated as the radiation dose needed for radiation alone divided by the dose needed for oxaliplatin plus radiation to yield a surviving fraction of 37% (Do in radiobiology).
(§7) Statistical analysis was performed by analysis of variance when comparing the colony formation between different treatment conditions. All data were presented as mean ±standard error of the mean (SEM). SPSS 10.0 software (SPSS Inc, Chicago) was used for analysis of all the data. Statistical significance was assumed where the p value was less than 0.05.

SiHa cells = assay: as above; assay type: cell-based, human
Protocol: as §4, §5, §6, §7

HeLa cells [2] = assay: Cell cycle distribution by propidium iodide staining and flow cytometry; assay type: cell-based, human
Protocol: To eliminate the potential contribution of cell cycle redistribution to the observed radiosensitization, flow cytometric analysis was performed to determine cell cycle progression after treatment of oxaliplatin. After treating cervical cancer cell line HeLa with 5 μM oxaliplatin for 2 h or 24 h after radiaton, drugs was washed out and cells were cultured for further 24 h. HeLa cells were harvested and fixed with 70% ethanol at 4° C. for 1 h. The cells were stained for 30 min with propidium iodide solution (containing propidium iodide, 0.5 mg/mL; RNAse, 0.1 mg/mL) from a CycleTEST PLUS DNA reagent kit (Becton Dickinson, Lincoln Park, N.J.). Analysis of the DNA content was performed using a FACScaliber flow cytometer (Becton Dickinson). The data from 10^4 cells were collected and analyzed using ModFit software (Becton Dickinson).

HeLa cells [3] = assay: Cell morphology (Wright's staining), mitotic catastrophe; assay type: cell-based, human
Protocol: After seeding for 24 h, HeLa cells were treated with various conditions including untreated control, oxaliplatin 5 μM for 2 h, radiation 2 Gy, and oxaliplatin 5 μM for 2 h followed by washing out and radiation 2 Gy. After these treatments, cell were cultured for further 24 h and then collected for Wright's staining and observation under a light microscope.

gamma-H2AX in HeLa cells = assay: Immunofluorescent staining of gamma-H2AX; assay type: cell-based, human; conditions: oxaliplatin 5 μM 2 h plus 2 Gy, 15 min after radiation
Protocol: Immunofluorescent staining was used to determine radiation-induced expression of gamma-H2AX which is an indicator of DNA double-strand break. For immunofluorescent staining of gamma-H2AX, HeLa cervical cancer cells that were untreated (control), treated with oxaliplatin 5 μM for 2 h, irradiation of 2 Gy, and oxaliplatin plus irradiation, cells were harvested 15 min after radiation, stained with Rhodamine-conjugated gamma-H2AX antibody (red) and counterstained with DAPI (blue), respectively.

[4] = test system: pATM, pChk1, pChk2, Rad51 in HeLa cells; assay: Western blot of DNA damage repair molecules; assay type: cell-based, human; conditions: oxaliplatin 5 μM 2 h plus radiation 2 Gy
Protocol: For western blot analysis, HeLa cells were cultured with various treatments: untreated (control), oxaliplatin 5 μM for 2 h (oxaliplatin), radiation 2 Gy (RT alone) and oxaliplatin plus radiation (oxaliplatin+RT) for further 1 h and 6 h. Then, the cellular proteins were extracted, quantified and subjected to gel electrophoresis using 10% (wt/vol) SDS-polyacrylamide gels. Protein samples were then blotted onto polyvinylidene difluoride (PVDF) membranes (Bio-Rad, Hercules, Calif.). The membranes were probed with diluted primary antibodies and detected using horseradish peroxidase-conjugated anti-mouse IgG followed by the use of enhanced chemiluminescence kits (Amersham Pharmacia Biotech). Anti-actin antibody was used as an internal control.

[5] = test system: HPV 18 positive adenocarcinoma cell (HeLa); conditions: cited from earlier work
[6] = oxaliplatin 5 μM 2 h, versus untreated

| Compound | highest non-toxic (cell viability>90%) dose (HeLa (HPV 18+) cells) | highest non-toxic (cell viability>90%) dose (SiHa (HPV 16+) cells) | sensitizer enhancement ratio (SER) at 37% survival (HeLa cells [1]; HeLa, oxaliplatin 5 μM for 2 h before radiation) | sensitizer enhancement ratio (SER) at 37% survival (HeLa cells [1]; HeLa, oxaliplatin 10 μM for 2 h before radiation (maximal SER)) | survival of irradiated tumor cells compared to radiation only (HeLa cells [1]; HeLa, pretreatment at 5 and 10 μM, radiation 0.5-3 Gy) | enhancement of radiation efficiency versus radiation alone (HeLa cells [1]; cervical cancer cell lines (HeLa and SiHa)) | maximal sensitizer enhancement ratio (SER) at 37% survival (SiHa cells; oxaliplatin 2 h before radiation) | survival of irradiated tumor cells compared to radiation only (SiHa cells; pretreatment at 5 and 10 μM, radiation 0.5-3 Gy) | proportion in the G0/G1 phase (HeLa cells [2]; [6]) | proportion of cells in the S phase (HeLa cells [2]; [6]) | percentage of cells at G2/M phase (HeLa cells [2]; oxaliplatin 5 μM plus irradiation, irradiation alone 26.2%±3.7) | percentages of apoptosis and necrosis (HeLa cells [3]; between all groups) | percentage cells with mitotic catastrophe (HeLa cells [3]; oxaliplatin 5 μM 2 h alone, untreated control 5.6±1.3%) | percentage cells with mitotic catastrophe (HeLa cells [3]; oxaliplatin 5 μM 2 h followed by radiation 2 Gy, radiation alone 16.7±3.2%) | radiation-induced early expression of gamma-H2AX (gamma-H2AX in HeLa cells) | Chk1 phosphorylation in irradiated cells [4] | expression of rad51 in irradiated cells [4] | radiation-augmented phosphorylation of Chk2 [4] | radiation-induced expression of phosphorylated ATM [4] | effect of combination with radiation [5] |
| --- | --- | --- | --- | --- | --- | --- | --- | --- | --- | --- | --- | --- | --- | --- | --- | --- | --- | --- | --- | --- |
| O=C1[O][Pt]2([NH][C@@H]3CCCC[C@H]3[NH]2)[O]C1=O [oxaliplatin] | 5 µM | 10 µM | 1.7 | 3.4 | markedly decreased | 3.1-3.9 times | 4.8 | markedly decreased | decreased | remained unchanged | 32.3%±3.5 | no marked changes | 27.3±2.2% | 38.5±3.8% | reduced | no effect | no effect | reduced | markedly reduced | – |
| N.N.[Cl][Pt][Cl] [cisplatin] | – | – | – | – | – | – | – | – | – | – | – | – | – | – | – | – | – | – | – | no effect |
